Data: US6299865A, “Reduction of hair growth” (priority 2000, dated 2001)

Key:
[1] = system: tissue nonspecific form of alkaline phosphatase; conditions: several species; cited from earlier work
Human hair follicles = experiment: Human hair follicle growth assay; assay type: cell-based; conditions: 0.1 mM, control 0.77 ± .09
Method: Human hair follicles in growth phase (anagen) were isolated from face-lift tissue under a dissecting scope using a scalpel and watchmakers forceps. The skin was sliced into thin strips exposing 2-3 rows of follicles that could readily be dissected. Follicles were placed into 0.5 mL Williams E medium (Life Technologies, Gaithersburg, Md.) supplemented with […] L-glutamine, 10 μg/mL insulin, 10 ng/mL hydrocortisone, 100 units penicillin, 0.1 mg/mL streptomycin and 0.25 μg/mL amphotericin B. The follicles were incubated in 24 well plates (1 follicle/well) at 37° C. in an atmosphere of 5% CO2 and 95% air. Hair follicles were video recorded in the 24-well plates under the dissecting scope under a power of 20×. Typically, initial recordings were made on day 0 (day follicles were placed in culture) or day 1, and again on days 7 or 8. Hair follicle lengths were assessed using an image analysis software system (Computer Eyes and NIH Image).

[2] = system: tissue-specific form of alkaline phosphatase; conditions: stereoselective: only the L-form is active; uncompetitive; cited from earlier work

Row | SMILES | Inhibition of tissue-specific form of alkaline phosphatase [2] | also measured
1 | N=C(N)NCCCC[C@H](N)C(=O)O [L-homoarginine] | – | Inhibition of tissue nonspecific form of alkaline phosphatase [1]: acts as an inhibitor
2 | [Na+].[Na+].[Na+].[O]=[V]([O-])([O-])[O-] [Sodium Orthovanadate, sodium orthovanadate] | – | Hair Follicle Length Increase (Day 6-Day 0) (Human hair follicles): 0.32 ± .06 mm
3 | CC(C)C[C@H](N)C(=O)O [leucine] | inhibit | –
4 | N[C@@H](Cc1ccccc1)C(=O)O [phenylalanine] | inhibit | –
5 | N[C@@H](Cc1c[nH]c2ccccc12)C(=O)O [tryptophan] | inhibit | –
